Results from ChEMBL document CHEMBL4804286, “3-amino-4-(4-(4 (dimethylcarbamoyl) phenyl)-1,4-diazepan-1-yl) thieno [2,3-b] pyridine-2-carboxamide for use in cancer therapy and formulations comprising the same” (2020).
“And” between values parts separate entries of the source, which are not always exact repeats. Equal values may be shown once. The source made the active and inactive calls. The rule behind the calls is not given here.

Experiments:
[1] = target: Mitogen-activated protein kinase 11 (Homo sapiens) (UniProt Q15759); experiment: Inhibition of human p38-beta assessed as percent of control at 2000 nM by KINOMEscan assay relative to control; design: scale not given: the % may be the effect or the level left
Sequence of Mitogen-activated protein kinase 11 (Homo sapiens) (Q15759 whole entry): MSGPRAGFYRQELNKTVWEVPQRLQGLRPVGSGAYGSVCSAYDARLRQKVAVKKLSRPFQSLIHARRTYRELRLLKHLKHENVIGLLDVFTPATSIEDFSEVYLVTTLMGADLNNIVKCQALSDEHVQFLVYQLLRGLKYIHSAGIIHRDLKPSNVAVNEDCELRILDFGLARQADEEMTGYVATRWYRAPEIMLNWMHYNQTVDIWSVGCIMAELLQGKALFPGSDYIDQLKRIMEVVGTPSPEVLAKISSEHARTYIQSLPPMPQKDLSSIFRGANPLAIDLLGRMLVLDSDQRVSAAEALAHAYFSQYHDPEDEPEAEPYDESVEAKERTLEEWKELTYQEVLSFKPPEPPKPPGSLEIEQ

[2] = target: Serine/threonine-protein kinase 17A (Homo sapiens) (UniProt Q9UEE5); experiment: Inhibition of human DRAK1 assessed as percent of control at 2000 nM by KINOMEscan assay relative to control; design: scale not given: the % may be the effect or the level left
[3] = target: Serine/threonine-protein kinase Nek1 (Homo sapiens) (UniProt Q96PY6); experiment: Inhibition of human NEK1 assessed as percent of control at 2000 nM by KINOMEscan assay relative to control; design: scale not given: the % may be the effect or the level left
[4] = target: Serine/threonine-protein kinase 25 (Homo sapiens) (UniProt O00506); experiment: Inhibition of human YSK1 assessed as percent of control at 2000 nM by KINOMEscan assay relative to control; design: scale not given: the % may be the effect or the level left
[5] = test system: Epidermal growth factor receptor (Homo sapiens), P00533 [UNDEFINED MUTATION]; experiment: Inhibition of human EGFR L747-S752del/P753S double mutant assessed as percent of control at 2000 nM by KINOMEscan assay relative to control; design: scale not given: the % may be the effect or the level left
[6] = target: Calcium/calmodulin-dependent protein kinase type II subunit beta (Homo sapiens) (UniProt Q13554); experiment: Inhibition of human CAMK2B assessed as percent of control at 2000 nM by KINOMEscan assay relative to control; design: scale not given: the % may be the effect or the level left
Sequence of Calcium/calmodulin-dependent protein kinase type II subunit beta (Homo sapiens) (Q13554 whole entry): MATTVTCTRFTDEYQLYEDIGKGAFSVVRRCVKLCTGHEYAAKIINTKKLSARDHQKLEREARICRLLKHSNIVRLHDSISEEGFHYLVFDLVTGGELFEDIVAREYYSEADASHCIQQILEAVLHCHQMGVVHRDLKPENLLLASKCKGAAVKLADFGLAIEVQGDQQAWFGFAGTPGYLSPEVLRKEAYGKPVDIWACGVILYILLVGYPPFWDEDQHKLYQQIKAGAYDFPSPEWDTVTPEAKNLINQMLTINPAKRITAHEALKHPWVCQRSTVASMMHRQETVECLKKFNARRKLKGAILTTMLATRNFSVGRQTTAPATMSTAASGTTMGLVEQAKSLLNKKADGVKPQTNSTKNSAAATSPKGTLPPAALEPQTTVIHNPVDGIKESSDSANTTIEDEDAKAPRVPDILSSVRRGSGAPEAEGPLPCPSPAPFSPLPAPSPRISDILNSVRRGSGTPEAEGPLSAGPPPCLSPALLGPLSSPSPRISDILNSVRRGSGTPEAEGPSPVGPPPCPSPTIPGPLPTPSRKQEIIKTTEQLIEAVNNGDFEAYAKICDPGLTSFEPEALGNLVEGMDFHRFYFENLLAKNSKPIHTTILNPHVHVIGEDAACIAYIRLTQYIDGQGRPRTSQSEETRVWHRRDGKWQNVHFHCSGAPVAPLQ

[7] = test system: Receptor-type tyrosine-protein kinase FLT3 (Homo sapiens), P36888 [UNDEFINED MUTATION]; experiment: Inhibition of human FLT3 ITD mutant assessed as percent of control at 2000 nM by KINOMEscan assay relative to control; design: scale not given: the % may be the effect or the level left
[8] = target: Homeodomain-interacting protein kinase 1 (Homo sapiens) (UniProt Q86Z02); experiment: Inhibition of human HIPK1 assessed as percent of control at 2000 nM by KINOMEscan assay relative to control; design: scale not given: the % may be the effect or the level left
[9] = target: Cyclin-dependent kinase 8 (Homo sapiens) (UniProt P49336); experiment: Inhibition of human CDK8 assessed as percent of control at 2000 nM by KINOMEscan assay relative to control; design: scale not given: the % may be the effect or the level left; details: INHIBITOR
[10] = target: Serine/threonine-protein kinase WNK3 (Homo sapiens) (UniProt Q9BYP7); experiment: Inhibition of human WNK3 assessed as percent of control at 2000 nM by KINOMEscan assay relative to control; design: scale not given: the % may be the effect or the level left
Sequence of Serine/threonine-protein kinase WNK3 (Homo sapiens) (Q9BYP7 whole entry): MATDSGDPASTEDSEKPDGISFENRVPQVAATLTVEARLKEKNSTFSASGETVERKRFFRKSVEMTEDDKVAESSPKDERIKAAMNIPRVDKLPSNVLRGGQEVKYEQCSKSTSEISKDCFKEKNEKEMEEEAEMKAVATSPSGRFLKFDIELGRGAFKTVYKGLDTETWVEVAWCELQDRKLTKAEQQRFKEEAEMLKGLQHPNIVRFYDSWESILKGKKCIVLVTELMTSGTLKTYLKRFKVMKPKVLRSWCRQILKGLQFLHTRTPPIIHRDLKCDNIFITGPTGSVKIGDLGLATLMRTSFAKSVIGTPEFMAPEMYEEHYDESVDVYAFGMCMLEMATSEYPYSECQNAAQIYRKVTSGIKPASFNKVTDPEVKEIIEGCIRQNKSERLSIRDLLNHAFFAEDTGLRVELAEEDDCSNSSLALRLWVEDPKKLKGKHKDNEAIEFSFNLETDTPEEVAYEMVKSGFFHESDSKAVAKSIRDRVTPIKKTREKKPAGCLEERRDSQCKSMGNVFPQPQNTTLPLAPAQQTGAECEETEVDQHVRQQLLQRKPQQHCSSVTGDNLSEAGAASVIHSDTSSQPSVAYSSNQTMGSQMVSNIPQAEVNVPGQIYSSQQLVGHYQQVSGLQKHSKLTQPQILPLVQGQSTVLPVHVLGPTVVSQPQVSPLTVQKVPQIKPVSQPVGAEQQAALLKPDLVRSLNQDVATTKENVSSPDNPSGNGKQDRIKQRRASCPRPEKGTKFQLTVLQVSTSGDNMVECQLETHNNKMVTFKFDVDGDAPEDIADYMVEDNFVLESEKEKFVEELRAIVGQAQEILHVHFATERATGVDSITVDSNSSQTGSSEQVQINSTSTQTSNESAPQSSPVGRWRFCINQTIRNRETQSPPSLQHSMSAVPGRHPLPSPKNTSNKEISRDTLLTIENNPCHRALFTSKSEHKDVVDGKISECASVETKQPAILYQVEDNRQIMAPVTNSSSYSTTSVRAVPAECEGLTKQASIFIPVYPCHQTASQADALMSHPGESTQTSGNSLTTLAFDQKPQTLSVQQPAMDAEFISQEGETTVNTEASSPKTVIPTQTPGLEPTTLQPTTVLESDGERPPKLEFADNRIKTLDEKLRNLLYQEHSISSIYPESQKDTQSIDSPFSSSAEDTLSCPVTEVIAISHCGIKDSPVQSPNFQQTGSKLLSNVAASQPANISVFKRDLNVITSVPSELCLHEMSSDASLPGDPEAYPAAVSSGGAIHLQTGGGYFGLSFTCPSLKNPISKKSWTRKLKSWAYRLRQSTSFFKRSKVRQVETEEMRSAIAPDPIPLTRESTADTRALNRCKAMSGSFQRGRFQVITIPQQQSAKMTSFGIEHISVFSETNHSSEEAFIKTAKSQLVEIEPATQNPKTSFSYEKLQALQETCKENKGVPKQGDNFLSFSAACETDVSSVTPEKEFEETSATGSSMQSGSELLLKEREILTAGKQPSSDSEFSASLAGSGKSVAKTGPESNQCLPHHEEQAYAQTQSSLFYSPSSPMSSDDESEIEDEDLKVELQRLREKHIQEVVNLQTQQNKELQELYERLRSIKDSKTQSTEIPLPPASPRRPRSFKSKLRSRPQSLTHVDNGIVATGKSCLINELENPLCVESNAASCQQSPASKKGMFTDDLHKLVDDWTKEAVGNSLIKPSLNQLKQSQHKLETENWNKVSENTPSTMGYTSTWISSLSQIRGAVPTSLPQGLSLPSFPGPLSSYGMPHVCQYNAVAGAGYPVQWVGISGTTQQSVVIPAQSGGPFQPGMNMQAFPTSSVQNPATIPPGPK

[11] = target: Death-associated protein kinase 3 (Homo sapiens) (UniProt O43293); experiment: Inhibition of human DAPK3 assessed as percent of control at 2000 nM by KINOMEscan assay relative to control; design: scale not given: the % may be the effect or the level left
Sequence of Death-associated protein kinase 3 (Homo sapiens) (O43293 whole entry, looked up): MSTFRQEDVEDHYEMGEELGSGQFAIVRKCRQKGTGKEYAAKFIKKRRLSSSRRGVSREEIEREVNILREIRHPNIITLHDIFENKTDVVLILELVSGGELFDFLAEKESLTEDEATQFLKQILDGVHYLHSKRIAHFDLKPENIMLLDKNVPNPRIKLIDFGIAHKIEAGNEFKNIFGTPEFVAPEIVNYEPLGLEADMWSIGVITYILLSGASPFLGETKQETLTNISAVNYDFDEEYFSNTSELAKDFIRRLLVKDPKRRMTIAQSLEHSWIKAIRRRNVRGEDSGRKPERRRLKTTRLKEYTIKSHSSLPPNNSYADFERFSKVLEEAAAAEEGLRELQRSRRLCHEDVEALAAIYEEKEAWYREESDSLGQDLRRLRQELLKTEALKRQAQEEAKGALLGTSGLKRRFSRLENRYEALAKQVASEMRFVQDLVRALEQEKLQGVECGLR

[12] = test system: Epidermal growth factor receptor (Homo sapiens), P00533 [UNDEFINED MUTATION]; experiment: Inhibition of human EGFR […] mutant assessed as percent of control at 2000 nM by KINOMEscan assay relative to control; design: scale not given: the % may be the effect or the level left
[13] = target: Casein kinase I isoform alpha-like (Homo sapiens) (UniProt Q8N752); experiment: Inhibition of human CSNK1A1L assessed as percent of control at 2000 nM by KINOMEscan assay relative to control; design: scale not given: the % may be the effect or the level left
[14] = target: Tyrosine-protein kinase ABL1 (Homo sapiens) (UniProt P00519); experiment: Inhibition of phosphorylated human ABL1 assessed as percent of control at 2000 nM by KINOMEscan assay relative to control; design: scale not given: the % may be the effect or the level left
[15] = target: Serine/threonine-protein kinase 38 (Homo sapiens) (UniProt Q15208); experiment: Inhibition of human NDR1 assessed as percent of control at 2000 nM by KINOMEscan assay relative to control; design: scale not given: the % may be the effect or the level left
[16] = target: Dual specificity protein kinase TTK (Homo sapiens) (UniProt P33981); experiment: Inhibition of human TTK assessed as percent of control at 2000 nM by KINOMEscan assay relative to control; design: scale not given: the % may be the effect or the level left
[17] = target: cAMP-dependent protein kinase catalytic subunit alpha (Homo sapiens) (UniProt P17612); experiment: Inhibition of human PKAC-alpha assessed as percent of control at 2000 nM by KINOMEscan assay relative to control; design: scale not given: the % may be the effect or the level left
[18] = target: Serine/threonine-protein kinase DCLK2 (Homo sapiens) (UniProt Q8N568); experiment: Inhibition of human DCAMKL2 assessed as percent of control at 2000 nM by KINOMEscan assay relative to control; design: scale not given: the % may be the effect or the level left
[19] = target: ALK tyrosine kinase receptor (Homo sapiens) (UniProt Q9UM73); experiment: Inhibition of human ALK assessed as percent of control at 2000 nM by KINOMEscan assay relative to control; design: scale not given: the % may be the effect or the level left
4T1 = experiment: Antitumor activity against murine 4T1 cells xenografted in mouse assessed as suppression of tumor volume at 25 mg/kg, po administered twice a day; type: functional, organism-based
[20] = target: Mast/stem cell growth factor receptor Kit (Homo sapiens) (UniProt P10721); experiment: Inhibition of human KIT assessed as percent of control at 2000 nM by KINOMEscan assay relative to control; design: scale not given: the % may be the effect or the level left
Sequence of Mast/stem cell growth factor receptor Kit (Homo sapiens) (P10721 whole entry): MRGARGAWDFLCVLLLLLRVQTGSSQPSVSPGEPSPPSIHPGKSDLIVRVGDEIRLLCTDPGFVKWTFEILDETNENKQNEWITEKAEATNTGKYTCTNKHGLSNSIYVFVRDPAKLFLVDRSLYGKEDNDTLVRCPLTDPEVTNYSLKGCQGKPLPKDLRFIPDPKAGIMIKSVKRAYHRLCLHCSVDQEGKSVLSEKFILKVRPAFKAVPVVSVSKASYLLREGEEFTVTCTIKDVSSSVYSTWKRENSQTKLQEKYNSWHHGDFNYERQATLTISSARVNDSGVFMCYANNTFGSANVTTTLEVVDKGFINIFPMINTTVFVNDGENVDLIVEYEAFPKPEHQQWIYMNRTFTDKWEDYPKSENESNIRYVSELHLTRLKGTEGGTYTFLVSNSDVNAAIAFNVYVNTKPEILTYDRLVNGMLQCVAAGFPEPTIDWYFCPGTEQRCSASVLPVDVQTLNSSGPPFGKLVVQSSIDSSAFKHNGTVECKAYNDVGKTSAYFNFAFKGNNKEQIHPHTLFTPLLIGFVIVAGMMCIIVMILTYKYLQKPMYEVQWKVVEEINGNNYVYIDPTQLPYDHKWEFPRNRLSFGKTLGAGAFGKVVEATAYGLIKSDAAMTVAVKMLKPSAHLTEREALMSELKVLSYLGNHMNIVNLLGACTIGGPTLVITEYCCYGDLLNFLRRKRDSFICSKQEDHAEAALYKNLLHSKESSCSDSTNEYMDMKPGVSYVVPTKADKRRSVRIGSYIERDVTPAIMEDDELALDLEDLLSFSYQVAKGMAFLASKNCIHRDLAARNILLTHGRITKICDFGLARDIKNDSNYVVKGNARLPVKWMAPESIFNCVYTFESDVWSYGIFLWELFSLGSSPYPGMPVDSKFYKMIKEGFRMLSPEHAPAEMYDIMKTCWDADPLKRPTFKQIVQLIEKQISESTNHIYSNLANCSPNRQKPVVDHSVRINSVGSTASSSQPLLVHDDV

[21] = target: Serine/threonine-protein kinase NLK (Homo sapiens) (UniProt Q9UBE8); experiment: Inhibition of human NLK assessed as percent of control at 2000 nM by KINOMEscan assay relative to control; design: scale not given: the % may be the effect or the level left
[22] = target: Serine/threonine-protein kinase TBK1 (Homo sapiens) (UniProt Q9UHD2); experiment: Inhibition of human TBK1 assessed as percent of control at 2000 nM by KINOMEscan assay relative to control; design: scale not given: the % may be the effect or the level left
[23] = target: Phosphorylase b kinase gamma catalytic chain, liver/testis isoform (Homo sapiens) (UniProt P15735); experiment: Inhibition of human PHKG2 assessed as percent of control at 2000 nM by KINOMEscan assay relative to control; design: scale not given: the % may be the effect or the level left
Sequence of Phosphorylase b kinase gamma catalytic chain, liver/testis isoform (Homo sapiens) (P15735 whole entry, canonical isoform): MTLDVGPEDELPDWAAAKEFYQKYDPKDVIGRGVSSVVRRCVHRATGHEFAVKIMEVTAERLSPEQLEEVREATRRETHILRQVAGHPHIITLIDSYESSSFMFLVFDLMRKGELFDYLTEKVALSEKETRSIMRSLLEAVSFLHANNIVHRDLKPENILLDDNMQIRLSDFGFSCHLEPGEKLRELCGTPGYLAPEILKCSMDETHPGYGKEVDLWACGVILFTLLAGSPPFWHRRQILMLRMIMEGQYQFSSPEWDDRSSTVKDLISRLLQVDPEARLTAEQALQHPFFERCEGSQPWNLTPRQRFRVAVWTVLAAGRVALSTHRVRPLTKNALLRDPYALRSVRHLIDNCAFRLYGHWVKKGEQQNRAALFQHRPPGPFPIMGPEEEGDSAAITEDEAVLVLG

[24] = target: Serine/threonine-protein kinase 24 (Homo sapiens) (UniProt Q9Y6E0); experiment: Inhibition of human MST3 assessed as percent of control at 2000 nM by KINOMEscan assay relative to control; design: scale not given: the % may be the effect or the level left
[25] = target: Casein kinase II subunit alpha' (Homo sapiens) (UniProt P19784); experiment: Inhibition of human CSNK2A2 assessed as percent of control at 2000 nM by KINOMEscan assay relative to control; design: scale not given: the % may be the effect or the level left
[26] = target: Uncharacterized serine/threonine-protein kinase SBK3 (Homo sapiens) (UniProt P0C264); experiment: Inhibition of human SgK110 assessed as percent of control at 2000 nM by KINOMEscan assay relative to control; design: scale not given: the % may be the effect or the level left
[27] = test system: Epidermal growth factor receptor (Homo sapiens), P00533 [L858R]; experiment: Inhibition of human EGFR L858R mutant assessed as percent of control at 2000 nM by KINOMEscan assay relative to control; design: scale not given: the % may be the effect or the level left
[28] = target: Cyclin-dependent kinase 4/cyclin D1 (Homo sapiens) (UniProt P11802+P24385); experiment: Inhibition of human CDK4/cyclin D1 assessed as percent of control at 2000 nM by KINOMEscan assay relative to control; type: protein-complex assay; design: scale not given: the % may be the effect or the level left
[29] = target: Serine/threonine-protein kinase Sgk2 (Homo sapiens) (UniProt Q9HBY8); experiment: Inhibition of human SGK2 assessed as percent of control at 2000 nM by KINOMEscan assay relative to control; design: scale not given: the % may be the effect or the level left
Sequence of Serine/threonine-protein kinase Sgk2 (Homo sapiens) (Q9HBY8 whole entry, the tested form may be a part): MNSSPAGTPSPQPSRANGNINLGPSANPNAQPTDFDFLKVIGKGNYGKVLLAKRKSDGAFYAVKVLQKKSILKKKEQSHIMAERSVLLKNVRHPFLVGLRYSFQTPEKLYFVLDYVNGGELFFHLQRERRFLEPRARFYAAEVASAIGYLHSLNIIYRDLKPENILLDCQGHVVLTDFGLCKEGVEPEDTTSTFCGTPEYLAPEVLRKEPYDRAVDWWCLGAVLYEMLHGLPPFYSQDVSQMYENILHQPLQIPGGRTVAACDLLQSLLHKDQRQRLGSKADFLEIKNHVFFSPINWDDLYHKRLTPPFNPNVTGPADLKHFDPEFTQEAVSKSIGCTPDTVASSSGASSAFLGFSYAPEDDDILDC

[30] = target: Tyrosine-protein kinase JAK3 (Homo sapiens) (UniProt P52333); experiment: Inhibition of human JAK3 JH1 catalytic domain assessed as percent of control at 2000 nM by KINOMEscan assay relative to control; design: scale not given: the % may be the effect or the level left

Question: Which Activity [1] does the source give for `CN(C)C(=O)c1ccc(N2CCCN(c3ccnc4sc(C(N)=O)c(N)c34)CC2)cc1` here?
Answer: Its Activity is 100% and 97%.

Question: And the Activity [2]?
Answer: Its Activity is 100%.

Question: And the Activity [3]?
Answer: The Activity was 80% and 96%.

Question: And the Activity [4]?
Answer: Its Activity is 76% and 98%.

Question: What about the Activity [5] of the same molecule?
Answer: Its Activity is 99% and 100%.

Question: What about the Activity [6] of the same molecule?
Answer: Its Activity is 92% and 87%.

Question: And the Activity [7]?
Answer: The Activity was 82% and 72%.

Question: What about the Activity [8] of the same molecule?
Answer: Its Activity is 86% and 71%.

Question: What about the Activity [9] of the same molecule?
Answer: Its Activity is 2.6% and 0.25%.

Question: And the Activity [10]?
Answer: The Activity was 97% and 100%.

Question: And the Activity [11]?
Answer: The Activity was 81% and 83%.

Question: And the Activity [12]?
Answer: The Activity was 86% and 100%.

Question: What about the Activity [13] of the same molecule?
Answer: Its Activity is 67%.

Question: And the Activity ([13]; INHIBITOR)?
Answer: Its Activity is 37%.

Question: What about the Activity [14] of the same molecule?
Answer: Its Activity is 90% and 77%.

Question: And the Activity [15]?
Answer: Its Activity is 100% and 80%.

Question: And the Activity [16]?
Answer: The Activity was 83% and 80%.

Question: What about the Activity [17] of the same molecule?
Answer: Its Activity is 95% and 100%.

Question: And the Activity [18]?
Answer: The Activity was 100%.

Question: And the Activity [19]?
Answer: The Activity was 81% and 78%.

Question: What about the Activity (4T1) of the same molecule?
Answer: Its Activity is “Active”.

Question: And the Activity [20]?
Answer: Its Activity is 95%.

Question: What about the Activity [21] of the same molecule?
Answer: The Activity was 98%.

Question: What about the Activity [22] of the same molecule?
Answer: The Activity was 99% and 97%.

Question: And the Activity [23]?
Answer: Its Activity is 86% and 83%.

Question: And the Activity [24]?
Answer: The Activity was 97% and 84%.

Question: What about the Activity [25] of the same molecule?
Answer: The Activity was 92% and 100%.

Question: What about the Activity [26] of the same molecule?
Answer: Its Activity is 95% and 100%.

Question: And the Activity [27]?
Answer: The Activity was 99% and 93%.

Question: And the Activity [28]?
Answer: Its Activity is 94% and 96%.

Question: And the Activity [29]?
Answer: Its Activity is 100% and 81%.

Question: And the Activity [30]?
Answer: The Activity was 83% and 80%.
